Test results taken from the SangsterLogP compilation.

Row | logP | Structure (SMILES)
1 | 0.39 | CCOCCOCCOCC
2 | 1.92 | CCCCOCCOCCOCCCC
3 | 3.21 | CCCCOCCCC
4 | -0.54 | CCOCCOCCO
5 | 1.86 | CCCCCCOCCO
6 | 0.66 | CCOCCOCC
7 | 0.19 | COC(=O)CCC(=O)OC
8 | 0.56 | CCCCOCCOCCO
9 | 1.19 | CCOC(=O)CCC(=O)OCC
10 | 1.7 | CCCCCCOCCOCCO
11 | -0.36 | COCCOCCOC
12 | 0.76 | CCCCOCCO
13 | 2.16 | CCCOC(=O)CCC(=O)OCCC
14 | 2.48 | CCCCOCCOCCCC
15 | -0.21 | COCCOC
